Laboratory results as given in ChEMBL document CHEMBL1201862, “PubChem BioAssay data set” (2004).
The source made the active and inactive calls.

Assays:
[1] = cytotoxicity toward NIH3T3 fibroblasts, dose response, counter-screen, cell-based, ATP luminescence, mouse fibroblasts (AID 2010); type: functional;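 also: cells exposed to compound for about 90 hours before reading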
[2] = inhibitors of intracellular T. cruzi replication, confirmation, NIH3T3 host cells, beta-gal luminescence (AID 2044); type: functional, cell-based;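 also: intracellular parasites grown in NIH/3T3 mouse fibroblasts as host cells; luminescent beta-galactosidase reporter signal from transgenic T. cruzi replicating inside host cells; inhibitors lower the luminescence signal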
[3] = HEK293T cytotoxicity, dose response, cytotoxicity control for miR-122 modulator project, cell-based, activator set, cherry-pick (AID 720690); type: functional;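 also: HEK293T human cells scored for general mammalian cytotoxicity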
[4] = molecular target: Luciferin 4-monooxygenase (Photinus pyralis, UniProt P08659); assay: firefly luciferase enzyme inhibitors, dose response, biochemical, luminescence (AID 1891)
Luciferin 4-monooxygenase, sequence (P08659 whole entry): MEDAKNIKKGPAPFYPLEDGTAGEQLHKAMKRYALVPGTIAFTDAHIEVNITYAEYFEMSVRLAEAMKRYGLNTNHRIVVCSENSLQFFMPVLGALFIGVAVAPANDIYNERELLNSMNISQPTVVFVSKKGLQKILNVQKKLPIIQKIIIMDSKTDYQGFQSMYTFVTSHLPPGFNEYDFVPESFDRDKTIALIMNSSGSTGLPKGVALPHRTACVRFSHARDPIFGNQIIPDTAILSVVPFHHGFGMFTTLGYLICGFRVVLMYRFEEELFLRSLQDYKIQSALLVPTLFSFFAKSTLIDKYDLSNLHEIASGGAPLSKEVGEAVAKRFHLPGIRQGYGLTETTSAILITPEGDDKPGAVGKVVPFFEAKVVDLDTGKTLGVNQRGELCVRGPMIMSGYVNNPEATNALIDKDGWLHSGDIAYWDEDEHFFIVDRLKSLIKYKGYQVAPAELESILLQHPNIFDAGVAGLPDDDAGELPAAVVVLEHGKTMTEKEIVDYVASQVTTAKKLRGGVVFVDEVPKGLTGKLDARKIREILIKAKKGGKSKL

[5] = HepG2 cell cytotoxicity, dose response, cytotoxicity control, ATP luminescence, cherry-pick, activator set 2 (AID 1053143); type: functional, cell-based
[6] = Luminescence Cell-Based Dose Confirmation HTS to Identify Inhibitors of Platelet Dense Granule Release. [Related pubchem assays: 1663 (Primary HTS), 1678 (Summary of Project)]; type: functional
[7] = Shn3 3'UTR reporter inhibitors, dose response, cell-based, Clone20 osteoblasts, firefly luciferase, cherry-picked (AID 624132); type: functional;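 also: firefly luciferase luminescence from reporter carrying the Shn3 3'UTR in osteoblasts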
[8] = inhibitors of control Renilla luciferase reporter, dose response, counter-screen for Shn3 3'UTR targeting project, Clone20-Shn3RL cells, dual-Glo, cherry-pick, set 2 (AID 720724); type: functional, cell-based; conditions: Dual-Go Shn3RL
[9] = control 3'UTR Renilla luciferase suppression, dose response, counter-screen for Shn3 inhibitor project, cell-based, Clone20-Shn3RL, cherry-picked (AID 624133); type: functional
[10] = reduction of Shn3 3'UTR firefly luciferase signal, dose response, Schnurri-3 inhibitor project, cell-based, Clone20 osteoblasts, cherry-pick, set 2 (AID 720490); type: functional;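 also: actives lower the luminescence signal as inhibitors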
[11] = A Cell-Based Confirmatory Screen for Compounds that Inhibit VEEV, TC-83 (8).; type: functional
[12] = A375 melanoma cell viability loss, dose response, counter-screen for MITF inhibitor project, CellTiter-Glo luminescence, dry powder, set 4 (AID 624364); type: functional, cell-based; conditions: A-375;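 also: A375 melanoma cells are MITF independent so this is a counter screen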
[13] = A375 melanoma cell cytotoxicity, dose response, counter-screen for MITF inhibitor project, CellTiter-Glo luminescence, dry powder, set 2 (AID 624489); type: functional, cell-based; conditions: A-375;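 also: actives are compounds lowering A375 viability meaning general cytotoxicity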
Mu-type opioid receptor = Mu-type opioid receptor (Homo sapiens, UniProt P35372); assay: Late-stage results from the probe development effort to identify antagonists of OPRK1: luminescence-based cell-based dose response OPRM1 counterscreen.; type: functional
Mu-type opioid receptor, sequence (P35372 whole entry): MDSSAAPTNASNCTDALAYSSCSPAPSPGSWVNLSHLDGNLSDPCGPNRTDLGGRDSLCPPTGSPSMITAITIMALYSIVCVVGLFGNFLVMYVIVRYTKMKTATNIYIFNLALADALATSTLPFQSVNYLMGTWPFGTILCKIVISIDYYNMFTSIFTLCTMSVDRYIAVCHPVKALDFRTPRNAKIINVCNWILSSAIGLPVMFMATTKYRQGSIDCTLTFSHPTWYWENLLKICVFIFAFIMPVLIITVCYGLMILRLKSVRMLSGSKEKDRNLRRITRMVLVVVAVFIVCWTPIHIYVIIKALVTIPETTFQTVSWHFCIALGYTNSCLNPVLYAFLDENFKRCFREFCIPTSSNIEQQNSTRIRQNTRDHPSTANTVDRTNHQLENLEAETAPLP

[14] = molecular target: Delta-type opioid receptor (Homo sapiens, UniProt P41143); assay: Late-stage results from the probe development effort to identify antagonists of OPRK1: fluorescence-based cell-based dose response OPRD1 counterscreen.; type: functional
Delta-type opioid receptor, sequence (P41143 whole entry): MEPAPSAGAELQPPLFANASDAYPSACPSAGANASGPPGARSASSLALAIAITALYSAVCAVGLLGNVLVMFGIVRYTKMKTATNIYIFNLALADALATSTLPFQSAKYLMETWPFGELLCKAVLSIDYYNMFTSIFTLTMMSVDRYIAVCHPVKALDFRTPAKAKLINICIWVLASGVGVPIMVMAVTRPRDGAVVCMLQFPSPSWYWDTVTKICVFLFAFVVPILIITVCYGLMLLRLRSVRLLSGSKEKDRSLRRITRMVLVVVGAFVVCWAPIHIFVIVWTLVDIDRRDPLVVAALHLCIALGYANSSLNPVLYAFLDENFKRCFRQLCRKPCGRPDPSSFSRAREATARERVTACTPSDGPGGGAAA

[15] = molecular target: Potassium channel subfamily K member 3 (Homo sapiens, UniProt O14649); assay: TASK1 (KCNK3) potassium channel inhibitors, SAR follow-up, CHO cells, FluxOR thallium flux (AID 652212); type: functional
Potassium channel subfamily K member 3, sequence (O14649 whole entry): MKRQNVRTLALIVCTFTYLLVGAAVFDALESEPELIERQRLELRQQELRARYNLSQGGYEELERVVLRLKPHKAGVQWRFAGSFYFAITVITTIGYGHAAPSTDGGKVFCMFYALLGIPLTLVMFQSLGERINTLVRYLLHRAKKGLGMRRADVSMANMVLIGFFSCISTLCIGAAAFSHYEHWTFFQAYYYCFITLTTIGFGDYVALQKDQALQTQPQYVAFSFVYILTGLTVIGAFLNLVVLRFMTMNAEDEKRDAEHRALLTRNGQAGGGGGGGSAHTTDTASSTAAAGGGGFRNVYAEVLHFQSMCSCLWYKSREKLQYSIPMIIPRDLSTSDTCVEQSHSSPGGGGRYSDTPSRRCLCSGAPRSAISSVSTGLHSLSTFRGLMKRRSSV

[16] = molecular target: Potassium channel subfamily K member 9 (Homo sapiens, UniProt Q9NPC2); assay: TASK3 (KCNK9) channel inhibitors, thallium flux, SAR follow-up, selectivity assay for TASK1 inhibitor project, cell-based, FluxOR thallium flux, concentration-response (AID 652211); type: functional;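 also: potency is for inhibitors of the channel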
Potassium channel subfamily K member 9, sequence (Q9NPC2 whole entry): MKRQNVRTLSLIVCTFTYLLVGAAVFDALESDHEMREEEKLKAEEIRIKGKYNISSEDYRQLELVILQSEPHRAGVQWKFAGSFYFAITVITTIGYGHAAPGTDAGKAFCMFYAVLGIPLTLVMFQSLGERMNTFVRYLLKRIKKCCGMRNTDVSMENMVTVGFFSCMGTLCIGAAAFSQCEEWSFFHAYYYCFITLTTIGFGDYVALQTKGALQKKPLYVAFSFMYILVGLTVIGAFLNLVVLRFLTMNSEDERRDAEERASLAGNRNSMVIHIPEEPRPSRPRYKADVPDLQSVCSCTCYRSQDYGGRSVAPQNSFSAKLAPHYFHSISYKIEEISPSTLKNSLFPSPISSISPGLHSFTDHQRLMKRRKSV

[17] = Late-stage results from the probe development effort to identify antagonists of arginine vasopressin receptor 1a (AVPR1a): fluorescence-based cell-based dose response AVPR1a inhibition assay.; type: functional
Vasopressin V2 receptor = Vasopressin V2 receptor (Homo sapiens, UniProt P30518); assay: Late-stage results from the probe development effort to identify antagonists of arginine vasopressin receptor 1a (AVPR1a): fluorescence-based cell-based dose response AVPR2 inhibition counterscreen assay.; type: functional
Vasopressin V2 receptor, sequence (P30518 whole entry): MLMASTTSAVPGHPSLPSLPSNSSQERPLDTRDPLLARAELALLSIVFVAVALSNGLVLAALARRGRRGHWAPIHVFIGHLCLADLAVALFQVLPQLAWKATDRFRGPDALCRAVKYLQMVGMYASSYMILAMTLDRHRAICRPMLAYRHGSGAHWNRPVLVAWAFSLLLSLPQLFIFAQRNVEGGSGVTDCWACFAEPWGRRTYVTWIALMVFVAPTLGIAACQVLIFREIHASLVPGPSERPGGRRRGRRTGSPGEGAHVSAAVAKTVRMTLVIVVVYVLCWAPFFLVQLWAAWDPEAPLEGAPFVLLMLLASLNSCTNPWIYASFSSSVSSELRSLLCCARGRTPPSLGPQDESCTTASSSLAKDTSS

[18] = Late-stage results from the probe development effort to identify antagonists of arginine vasopressin receptor 1a (AVPR1a): fluorescence-based cell-based dose response OXTR inhibition counterscreen assay.; type: functional
Vasopressin V1b receptor = Vasopressin V1b receptor (Homo sapiens, UniProt P47901); assay: Late-stage results from the probe development effort to identify antagonists of arginine vasopressin receptor 1a (AVPR1a): fluorescence-based cell-based dose response AVPR1b inhibition counterscreen assay.; type: functional
Vasopressin V1b receptor, sequence (P47901 whole entry): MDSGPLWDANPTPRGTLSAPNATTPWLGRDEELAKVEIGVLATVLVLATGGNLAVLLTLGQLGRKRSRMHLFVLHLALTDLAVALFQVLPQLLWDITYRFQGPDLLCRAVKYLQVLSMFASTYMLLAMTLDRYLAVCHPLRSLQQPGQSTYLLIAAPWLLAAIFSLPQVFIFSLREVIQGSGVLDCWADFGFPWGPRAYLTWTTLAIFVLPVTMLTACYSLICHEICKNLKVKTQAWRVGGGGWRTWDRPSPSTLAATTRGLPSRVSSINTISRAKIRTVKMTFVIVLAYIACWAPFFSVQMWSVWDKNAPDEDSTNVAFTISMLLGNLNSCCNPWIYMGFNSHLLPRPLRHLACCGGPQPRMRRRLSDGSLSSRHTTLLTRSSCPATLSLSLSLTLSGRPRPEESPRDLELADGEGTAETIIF

[19] = inhibitors of fibronectin matrix deposition, dose response, AH1F cells, Alexa488-FN fluorescence, cherry-picks (AID 1035475); type: functional, cell-based
fMet-Leu-Phe receptor = fMet-Leu-Phe receptor (Homo sapiens, UniProt P21462); assay: FPR ligands, dose response (AID 519); type: functional
fMet-Leu-Phe receptor, sequence (P21462 whole entry): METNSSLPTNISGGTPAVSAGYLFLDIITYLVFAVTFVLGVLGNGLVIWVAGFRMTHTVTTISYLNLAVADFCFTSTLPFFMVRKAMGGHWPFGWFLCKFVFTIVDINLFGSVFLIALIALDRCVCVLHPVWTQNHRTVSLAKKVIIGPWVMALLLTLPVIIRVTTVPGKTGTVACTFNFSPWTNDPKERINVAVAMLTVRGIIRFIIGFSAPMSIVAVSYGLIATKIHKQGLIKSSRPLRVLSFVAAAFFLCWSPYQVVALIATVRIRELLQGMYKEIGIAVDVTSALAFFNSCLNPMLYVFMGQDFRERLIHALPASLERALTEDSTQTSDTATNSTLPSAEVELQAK

[20] = molecular target: T1, Rac GTPase-activating protein 1 (Homo sapiens, UniProt Q9H0H5); assay: MgcRacGAP GTPase-activating activity inhibitors, confirmation, biochemical, ADP Hunter fluorescence, primary and confirmatory (AID 624330); type: functional
T1 sequence (Q9H0H5 whole entry): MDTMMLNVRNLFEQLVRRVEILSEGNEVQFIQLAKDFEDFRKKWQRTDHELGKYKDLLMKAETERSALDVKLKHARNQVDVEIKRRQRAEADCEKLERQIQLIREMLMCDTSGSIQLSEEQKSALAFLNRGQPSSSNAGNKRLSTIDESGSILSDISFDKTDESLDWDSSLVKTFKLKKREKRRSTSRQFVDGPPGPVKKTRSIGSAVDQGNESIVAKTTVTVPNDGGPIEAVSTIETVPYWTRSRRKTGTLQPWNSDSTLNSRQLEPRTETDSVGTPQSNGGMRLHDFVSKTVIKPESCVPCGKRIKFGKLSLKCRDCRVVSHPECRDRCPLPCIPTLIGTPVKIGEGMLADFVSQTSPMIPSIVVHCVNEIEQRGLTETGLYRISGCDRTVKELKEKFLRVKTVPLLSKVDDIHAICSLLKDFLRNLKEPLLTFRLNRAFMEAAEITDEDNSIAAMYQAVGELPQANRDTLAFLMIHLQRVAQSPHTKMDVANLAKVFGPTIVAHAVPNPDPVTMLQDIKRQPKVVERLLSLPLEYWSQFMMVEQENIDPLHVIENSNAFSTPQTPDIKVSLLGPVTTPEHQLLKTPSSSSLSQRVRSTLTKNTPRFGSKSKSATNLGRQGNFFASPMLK

Paired box protein Pax-8 = Paired box protein Pax-8 (Homo sapiens, UniProt Q06710); assay: inhibitors of PAX8-driven TPO luciferase reporter, dose response, RMG-I cells, cherry-pick (AID 687027); type: functional, cell-based;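 also: luciferase reporter driven by Pax8 target thyroperoxidase promoter measured by SteadyGlo luminescence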
Paired box protein Pax-8, sequence (Q06710 whole entry): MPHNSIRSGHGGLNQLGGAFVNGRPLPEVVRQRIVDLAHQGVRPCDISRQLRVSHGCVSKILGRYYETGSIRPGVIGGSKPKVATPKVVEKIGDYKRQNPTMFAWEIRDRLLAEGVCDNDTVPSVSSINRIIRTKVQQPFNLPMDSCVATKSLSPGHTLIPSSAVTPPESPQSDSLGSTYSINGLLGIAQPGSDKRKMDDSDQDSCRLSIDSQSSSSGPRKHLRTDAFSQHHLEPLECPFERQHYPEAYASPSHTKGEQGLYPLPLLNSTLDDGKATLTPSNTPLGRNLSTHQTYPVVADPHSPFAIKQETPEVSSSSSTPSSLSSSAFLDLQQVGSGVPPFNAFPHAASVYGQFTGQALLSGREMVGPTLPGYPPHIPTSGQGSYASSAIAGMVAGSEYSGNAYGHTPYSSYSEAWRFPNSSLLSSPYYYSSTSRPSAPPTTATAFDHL

[21] = A2780 ovarian cancer cell cytotoxicity, dose response, cytotoxicity control, plate reader, dry powder samples (AID 743046); type: functional, cell-based
[22] = NIH:OVCAR-3 ovarian cancer cell cytotoxicity, dose response, PAX8 inhibitor project, plate reader, dry powder samples (AID 743044); type: functional, cell-based
[23] = IGROV1 ovarian cancer cell cytotoxicity, dose response, PAX8 inhibitor project, plate reader, dry powder samples (AID 743043); type: functional, cell-based; conditions: IGROV-1
[24] = cytotoxicity in OVCAR8 ovarian cancer cells, dose response, PAX8 project, cell-based, plate reader, dry powder samples (AID 743197); type: functional; conditions: OVCAR-8
[25] = ZM109 Env clade C HIV-1 fusion inhibitors, dose response, HeLa effector, CEM target cells, luciferase, cherry-pick (AID 652058); type: functional, cell-based
[26] = CEM21 cell cytotoxicity, dose response, cytotoxicity control, plate reader, dry powder (AID 687026); type: functional, cell-based
[27] = inhibitors of clade B AD8 Env fusion, dose response, cell-based, cherry-pick (AID 652062); type: functional;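 also: luciferase signal from cell-cell fusion driven by HIV-1 clade B AD8 Env; potency is for inhibitors of fusion seen as a drop in luminescence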
[28] = inhibitors of HIV Env-driven cell fusion, dose response, cherry-pick (AID 652057); type: functional, cell-based
[29] = Vero E6 cell cytotoxicity, dose response, cytotoxicity control for non-replicating M. tuberculosis project, secondary assay (AID 492998); type: functional, VeroE6; conditions: Vero C1008
cells = type: functional
Aminopeptidase N = molecular target: T2, Aminopeptidase N (Plasmodium falciparum FcB1/Columbia, UniProt O96935); assay: P. falciparum M1AAP inhibitors, biochemical, fluorogenic H-Leu-NHMec substrate, 1536-well (AID 1445); design: species or system Plasmodium falciparum 3D7, 3D7
T2 sequence (O96935 whole entry): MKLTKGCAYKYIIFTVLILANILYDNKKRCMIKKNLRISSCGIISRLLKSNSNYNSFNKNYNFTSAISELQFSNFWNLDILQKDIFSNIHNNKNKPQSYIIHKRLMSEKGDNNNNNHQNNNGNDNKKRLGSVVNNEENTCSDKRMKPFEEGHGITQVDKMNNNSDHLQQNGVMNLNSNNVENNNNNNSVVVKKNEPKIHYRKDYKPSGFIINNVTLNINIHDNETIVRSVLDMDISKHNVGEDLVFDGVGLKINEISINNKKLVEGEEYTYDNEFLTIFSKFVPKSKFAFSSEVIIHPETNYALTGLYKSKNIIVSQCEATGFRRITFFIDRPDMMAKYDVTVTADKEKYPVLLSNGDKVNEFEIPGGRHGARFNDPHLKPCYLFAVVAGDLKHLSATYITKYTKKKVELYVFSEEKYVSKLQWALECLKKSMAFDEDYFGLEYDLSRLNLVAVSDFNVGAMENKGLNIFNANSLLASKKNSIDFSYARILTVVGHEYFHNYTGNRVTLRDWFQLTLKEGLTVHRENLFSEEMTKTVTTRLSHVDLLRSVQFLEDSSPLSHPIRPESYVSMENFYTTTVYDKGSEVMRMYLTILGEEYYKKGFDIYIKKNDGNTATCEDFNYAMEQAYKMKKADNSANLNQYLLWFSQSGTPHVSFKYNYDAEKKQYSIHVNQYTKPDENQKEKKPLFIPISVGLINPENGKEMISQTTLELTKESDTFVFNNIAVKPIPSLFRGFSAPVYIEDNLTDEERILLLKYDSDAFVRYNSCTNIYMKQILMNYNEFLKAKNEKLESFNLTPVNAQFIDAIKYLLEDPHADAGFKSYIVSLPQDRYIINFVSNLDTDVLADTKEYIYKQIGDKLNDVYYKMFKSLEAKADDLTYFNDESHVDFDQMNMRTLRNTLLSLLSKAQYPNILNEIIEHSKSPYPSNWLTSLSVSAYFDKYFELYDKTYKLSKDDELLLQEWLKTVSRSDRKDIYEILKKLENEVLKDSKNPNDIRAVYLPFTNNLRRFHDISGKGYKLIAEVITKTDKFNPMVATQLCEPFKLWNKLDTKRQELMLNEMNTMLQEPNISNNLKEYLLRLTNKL

[30] = microbe, parasite or virus in culture; type: functional; conditions: Mycobacterium tuberculosis
[31] = Artemis endonuclease inhibitor potency, dose response, biochemical, fluorescence intensity (AID 720701); type: functional;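 also: Artemis endonuclease enzyme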
[32] = molecular target: NAD-dependent protein deacylase sirtuin-5, mitochondrial (Homo sapiens, UniProt Q9NXA8); assay: SIRT5 deacylase inhibitors, dose response, biochemical, fluorescence imaging, cherry-pick, set 6 (AID 720597)
NAD-dependent protein deacylase sirtuin-5, mitochondrial, sequence (Q9NXA8 whole entry): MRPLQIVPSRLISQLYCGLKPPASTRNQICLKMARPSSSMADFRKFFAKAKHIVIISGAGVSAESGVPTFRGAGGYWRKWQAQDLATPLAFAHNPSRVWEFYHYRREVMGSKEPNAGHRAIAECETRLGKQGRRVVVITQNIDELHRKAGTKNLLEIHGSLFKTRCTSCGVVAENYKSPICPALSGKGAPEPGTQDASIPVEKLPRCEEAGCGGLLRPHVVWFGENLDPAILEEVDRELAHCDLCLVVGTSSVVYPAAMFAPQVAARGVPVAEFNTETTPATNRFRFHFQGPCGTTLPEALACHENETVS

## O=C(Nc1nc(-c2cc3ccccc3o2)cs1)c1ccc(S(=O)(=O)N2CCCC2)cc1
[1]
  EC50: > 30 µM (not active)
[2]
  EC50: 4.21 µM (active)
[3]
  AC50: 10.9 µM (active)

## Cc1ccccc1Nc1nc(N)c2ccccc2n1
[4]
  EC50: 1.26 µM (active)
[5]
  AC50: 26 µM (active)
[6]
  EC50: 3.1 µM (active)

## CCOc1ccc(Cn2nnc(C(=O)Nc3cc(OC)cc(OC)c3)c2N)cc1
[7]
  AC50: 5.3 µM (active)
[8]
  AC50: 38.5 µM (active)
[9]
  AC50: 26.9 µM (active)
[10]
  AC50: 9.37 µM (active)

## CN1CCN(C)/C(=N/c2ccc(C#N)cc2C(=O)Nc2cccc(F)c2)C1
[11]
  IC50: 840 nM (active)

## O=C1C(Nc2ccccc2)=C(N2CCSCC2)C(=O)c2ccccc21
[12]
  AC50: > 70 µM (inactive)
[13]
  AC50: 69.3 µM (active)

## COC(=O)c1cc(Br)cnc1N1CCC(N[C@@H]2CCCC[C@H]2O)CC1
Mu-type opioid receptor
  IC50: 2.8 µM (active)
[14]
  IC50: 3.36 µM (active)

## CCOc1cccc(NC(=O)c2cccc(NC(=O)C3CCCC3)c2)c1
[15]
  IC50: 491 nM (active)
[16]
  IC50: 4.07 µM (active)

## N#Cc1cccnc1N1CCC(C(=O)N(CC2CC2)c2ccc(Cl)cc2)CC1
[17]
  IC50: 67 nM (active)
Vasopressin V2 receptor
  IC50: 24.4 µM (inactive)
[18]
  IC50: 6.8 µM (active)
Vasopressin V1b receptor
  IC50: 14 µM (inactive)

## C[C@H]1CN([C@@H](C)CO)C(=O)c2cc(NC(=O)CCCN(C)C)ccc2O[C@@H]1CN(C)Cc1ccc(-c2ccccc2)cc1
[19]
  AC50: > 70 µM (inactive)

## CCCN=C(S)Nc1ccc(Nc2ccccc2)cc1
fMet-Leu-Phe receptor
  Ki: > 66.7 µM (inactive)
[20]
  IC50: 82.4 µM (active)

## C[C@@H]1CCCCO[C@@H](CN(C)Cc2ccccc2)[C@H](C)CN([C@@H](C)CO)C(=O)c2cc(NC(=O)Nc3ccc(C(F)(F)F)cc3)ccc2O1
Paired box protein Pax-8
  AC50: 10.8 µM (active)
[21]
  AC50: 44.6 µM (active)
[22]
  AC50: 23.1 µM (active)
[23]
  AC50: 47.9 µM (active)
[24]
  AC50: 42.2 µM (active)

## Cc1ccc(S(=O)(=O)Nc2cccc3c2O[C@@H](CN(C)Cc2ccc(Cl)c(Cl)c2)[C@@H](C)CN([C@H](C)CO)C3=O)cc1
[25]
  AC50: 2.75 µM (active)
[26]
  AC50: 19.2 µM (active)
[27]
  AC50: 65.4 µM (active)
[28]
  AC50: 12.1 µM (active)

## Cc1cc(Cl)ccc1OCCCC(=O)NO
[29]
  CC50: 18.9 µM (active)
cells
  IC50: 27.9 µM (active)
Aminopeptidase N
  IC50: 43.1 µM (active)
[30]
  CC50: 29.4 µM (active)
[31]
  IC50: 1.59 µM (active)

## C[C@@H]1CN([C@@H](C)CO)C(=O)c2cc(NS(C)(=O)=O)ccc2O[C@@H](C)CCCCO[C@H]1CN(C)Cc1ccc(C(F)(F)F)cc1
[32]
  AC50: > 30 µM (inactive)
